The source of these data is patent US20240383869A1, “ARYLACETYL INHIBITORS OF TG2 AND USES THEREOF” (UNIVERSITY OF OTTAWA, priority 2021, published 2024).

This test deals with T1, hTG2 (Homo sapiens, UniProt P21980).
T1 sequence (P21980 1-687): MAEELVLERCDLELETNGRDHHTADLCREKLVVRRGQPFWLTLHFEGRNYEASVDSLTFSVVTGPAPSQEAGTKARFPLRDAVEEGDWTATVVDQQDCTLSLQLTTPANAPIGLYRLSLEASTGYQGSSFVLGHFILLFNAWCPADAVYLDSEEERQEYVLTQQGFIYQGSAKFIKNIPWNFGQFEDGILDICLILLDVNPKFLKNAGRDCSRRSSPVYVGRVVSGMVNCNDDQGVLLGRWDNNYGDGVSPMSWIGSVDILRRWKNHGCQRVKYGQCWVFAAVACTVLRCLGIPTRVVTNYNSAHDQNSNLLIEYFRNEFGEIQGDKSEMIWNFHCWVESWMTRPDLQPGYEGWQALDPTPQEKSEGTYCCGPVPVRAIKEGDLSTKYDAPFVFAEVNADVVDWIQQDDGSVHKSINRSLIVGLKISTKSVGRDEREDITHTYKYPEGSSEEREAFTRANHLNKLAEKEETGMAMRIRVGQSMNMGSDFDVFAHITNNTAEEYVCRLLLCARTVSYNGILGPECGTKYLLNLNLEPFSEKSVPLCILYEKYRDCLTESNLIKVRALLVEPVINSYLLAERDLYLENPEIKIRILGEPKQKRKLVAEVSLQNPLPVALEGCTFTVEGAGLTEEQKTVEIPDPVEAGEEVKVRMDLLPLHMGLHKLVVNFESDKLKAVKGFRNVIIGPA
Briefly: biochemical. On the procedure: The ability of the compounds to inhibit TG2 transamidase activity and the kinetics of TG2 inhibition were investigated using a colorimetric activity assay, as follows:
Colorimetric transamidase activity assay. The activities of hTG1, hTG2 and hTG6 were measured via a colorimetric assay using the chromogenic substrate Cbz-Glu(γ-p-nitrophenyl ester)Gly (AL5), as described (Leblanc, A. et al., “Kinetic studies of guinea pig liver transglutaminase reveal a general-base-catalyzed deacylation mechanism.” Biochemistry 2001, 40 (28), 8335-8342). Assays were conducted at 25° C. in 50 mM MOPS buffer (pH 6.95) containing 7.5 mM CaCl2. […] The substrate AL5 was prepared in as a stock solution in DMSO such that the final concentration of this co-solvent was constant at 2.5% v/v. Stock solutions of the inhibitors were made in water ranging in concentration from 100-500 μM. The reaction was initiated with the addition of enzyme, 0.10 μM hTG1, 0.25 μM hTG2 (4.6 mU/mL) or 0.32 μM hTG6. Formation of hydrolysis product, p-nitrophenolate (pNP), was monitored at 405 nm in a polystyrene 96-well microplate using a BioTek Synergy 4 plate reader. The observed first-order rate constants of inactivation (kobs) were determined via non-linear regression fit to a mono-exponential model (Eqn 1) of absorbance versus time curves. These rate constants (kobs) were in turn fit to a saturation kinetics model (Eqn 2), by non-linear regression, providing the kinetic parameters kinact and KI, as previously described by Stone and Hofsteenge (Stone, S. R. and Hofsteenge, J., “Specificity of activated human protein C.” Biochem. J. 1985, 230 (2), 497-502). […] Experiments were completed in triplicate at minimum.
Fitting of this time-dependent inactivation to a monoexponential equation gave first-order rate constants, kobs. […] In some cases, the kinetic data were fitted to a linear double reciprocal equation.

[1] abbreviates: fit to saturation kinetics model, 25° C., pH 6.95, 100 μM AL5, read-out: KI (converted).
[2] abbreviates: fit to saturation kinetics model, 25° C., pH 6.95, 100 μM AL5, read-out: kinact (converted).
Setting [3] is: fit to saturation kinetics model, 25° C., pH 6.95, 100 μM AL5, read-out: kinact/KI (converted).

Where two headings read alike, the source gives them in different places.

One may read the Ki as the equilibrium dissociation constant of an inhibitor or competing ligand from its target. What is called kinact is the rate constant of inactivation at saturating inhibitor. For `C=CC(=O)NCCCC[C@H](NC(=O)CC1CCCCC1)C(=O)N1CCN(C(=O)c2cccc3ccccc23)CC1` [Inhibitor 34, (S)-N-(6-(4-(1-naphthoyl)piperazin-1-yl)-5-(2-cyclohexylacetamido)-6-oxohexyl)acrylamide], under setting [1], the Ki is 12.2 ± 2.4 µM. In addition, the kinact under setting [2] is 0.00433 s⁻¹. Moreover, under setting [3], the kinact/KI is 348 M⁻¹ s⁻¹.
For `C=CC(=O)NCCCC[C@H](NC(=O)c1cccc2ccccc12)C(=O)N1CCN(C(=O)c2cccc3ccccc23)CC1` [Inhibitor 66, (S)-N-(1-(4-(1-naphthoyl)piperazin-1-yl)-6-acrylamido-1-oxohexan-2-yl)-1-naphthamide], the Ki was 9.3 µM, the kinact was 0.00433 s⁻¹ and the kinact/KI is 458 M⁻¹ s⁻¹. Further, under setting [1], the Ki is 20.3 ± 5.1 µM. Also, where the note is “pH 6.95”, the kinact/KI was 335 M⁻¹ s⁻¹.
For the compound `C=CC(=O)NCCCC[C@H](NC(=O)c1ccc2ccccc2c1)C(=O)N1CCN(C(=O)c2cccc3ccccc23)CC1` [Inhibitor 65, (S)-N-(1-(4-(1-naphthoyl)piperazin-1-yl)-6-acrylamido-1-oxohexan-2-yl)-2-naphthamide], the Ki under setting [1] was 8 ± 1.8 µM. Moreover, the kinact under setting [2] was 0.00483 s⁻¹. In addition, the kinact/KI under setting [3] is 608 M⁻¹ s⁻¹.
For `C=CC(=O)NCCCC[C@H](NC(=O)Cc1cccc(Cl)c1)C(=O)N1CCN(C(=O)c2cccc3ccccc23)CC1` [Inhibitor 73, (S)-N-(6-(4-(1-naphthoyl)piperazin-1-yl)-5-(2-(3-chlorophenyl)acetamido)-6-oxohexyl)acrylamide] the same measures were 1 ± 0.5 µM, 0.005 s⁻¹ and 4830 M⁻¹ s⁻¹.
Regarding `C=CC(=O)NCCCC[C@H](NC(=O)Cc1ccc(F)cc1F)C(=O)N1CCN(C(=O)c2cccc3ccccc23)CC1` [Inhibitor 80, (S)-N-(6-(4-(1-naphthoyl)piperazin-1-yl)-5-(2-(2,4-difluorophenyl)acetamido)-6-oxohexyl)acrylamide], the Ki under setting [1] was 2.8 ± 0.9 µM. Besides, the kinact under setting [2] was 0.0103 s⁻¹. Besides, the kinact/KI under setting [3] was 3730 M⁻¹ s⁻¹.
For `C=CC(=O)NCCCC[C@H](NC(=O)Cc1ccc(Cl)c(Cl)c1)C(=O)N1CCN(C(=O)c2cccc3ccccc23)CC1` [Inhibitor 79, (S)-N-(6-(4-(1-naphthoyl)piperazin-1-yl)-5-(2-(3,4-dichlorophenyl)acetamido)-6-oxohexyl)acrylamide] the same measures were 0.58 ± 0.3 µM, 0.00133 s⁻¹ and 2180 M⁻¹ s⁻¹.
For `C=CC(=O)NCCCC[C@H](NC(=O)Cc1ccccc1C(F)(F)F)C(=O)N1CCN(C(=O)c2cccc3ccccc23)CC1` [Inhibitor 81, (S)-N-(6-(4-(1-naphthoyl)piperazin-1-yl)-5-(2-(2-trifluoromethylphenyl)acetamido)-6-oxohexyl)acrylamide] the same measures were 10.1 ± 3.1 µM, 0.0167 s⁻¹ and 1670 M⁻¹ s⁻¹.
For `C=CC(=O)NCCCC[C@H](NS(C)(=O)=O)C(=O)N1CCN(C(=O)c2cccc3ccccc23)CC1` [Inhibitor 91, (S)-N-(6-(4-(1-naphthoyl)piperazin-1-yl)-5-(methylsulfonamido)-6-oxohexyl)acrylamide] the same measures were 25.3 ± 7.1 µM, 0.0095 s⁻¹ and 377 M⁻¹ s⁻¹.
For `C=CC(=O)NCCCC[C@H](NS(=O)(=O)CC)C(=O)N1CCN(C(=O)c2cccc3ccccc23)CC1` [Inhibitor 90, (S)-N-(6-(4-(1-naphthoyl)piperazin-1-yl)-5-(ethylsulfonamido)-6-oxohexyl)acrylamide], the Ki under setting [1] is 26.6 ± 1.1 µM. Also, the kinact under setting [2] is 0.0138 s⁻¹. The kinact/KI under setting [3] is 518 M⁻¹ s⁻¹.
The matching figures for `C=CC(=O)NCCCC[C@H](NC(=O)c1ccccc1F)C(=O)N1CCN(C(=O)c2cccc3ccccc23)CC1` [Inhibitor 62, (S)-N-(1-(4-(1-naphthoyl)piperazin-1-yl)-6-acrylamido-1-oxohexan-2-yl)-2-fluorobenzamide]: 10 ± 2.6 µM, 0.0065 s⁻¹ and 657 M⁻¹ s⁻¹.
Regarding `C=CC(=O)NCCCC[C@H](NC(=O)c1cccnc1)C(=O)N1CCN(C(=O)c2cccc3ccccc23)CC1` [Inhibitor 19, (S)-N-(1-(4-(1-naphthoyl)piperazin-1-yl)-6-acrylamido-1-oxohexan-2-yl)nicotinamide], the Ki (values determined using a double-reciprocal analysis, read-out: KI (converted)) is 25.4 ± 2.8 µM. Besides, the kinact (values determined using a double-reciprocal analysis, read-out: kinact (converted)) is 0.00983 s⁻¹. For the same compound, the kinact/KI (values determined using a double-reciprocal analysis, read-out: kinact/KI (converted)) is 388 M⁻¹ s⁻¹.
As to `C=CC(=O)NCCCC[C@H](NC(=O)CCc1ccccc1)C(=O)N1CCN(C(=O)c2cccc3ccccc23)CC1` [Inhibitor 68, (S)-N-(6-(4-(1-naphthoyl)piperazin-1-yl)-6-oxo-5-(3-phenylpropanamido)hexyl)acrylamide], the inhibition constant Ki under setting [1] was 2.8 ± 0.3 µM. The kinact under setting [2] was 0.01 s⁻¹. The kinact/KI under setting [3] was 3570 M⁻¹ s⁻¹.
The matching figures for `C=CC(=O)NCCCC[C@H](NC(=O)C(C)C)C(=O)N1CCN(C(=O)c2cccc3ccccc23)CC1` [Inhibitor 39, (S)-N-(6-(4-(1-naphthoyl)piperazin-1-yl)-5-isobutyramido-6-oxohexyl)acrylamide]: 9.9 ± 1.4 µM, 0.0108 s⁻¹ and 1080 M⁻¹ s⁻¹.
Regarding `C=CC(=O)NCCCC[C@H](NC(=O)Cc1cccc(Cl)c1Cl)C(=O)N1CCN(C(=O)c2cccc3ccccc23)CC1` [Inhibitor 78, (S)-N-(6-(4-(1-naphthoyl)piperazin-1-yl)-5-(2-(2,3-dichlorophenyl)acetamido)-6-oxohexyl)acrylamide], the Ki under setting [1] was 2.7 ± 2.8 µM. Moreover, under setting [2], the inactivation rate constant (kinact) is 0.00767 s⁻¹. The kinact/KI under setting [3] is 2830 M⁻¹ s⁻¹.
For `C=CC(=O)NCCCC[C@H](NC(=O)C1CCCCC1)C(=O)N1CCN(C(=O)c2cccc3ccccc23)CC1` [Inhibitor 35, (S)-N-(1-(4-(1-naphthoyl)piperazin-1-yl)-6-acrylamido-1-oxohexan-2-yl)cyclohexanecarboxamide] the same measures were 9.9 ± 1.3 µM, 0.0055 s⁻¹ and 560 M⁻¹ s⁻¹.
